The series can be described thus: Bleaching of dye-impregnated filter paper strips in flowing ozonated water. In kind it is physicochemical. The source says: Each kind of indicator-impregnated substrate, or Ct strip, must be tested to empirically determine the Ct value range most suitable for that particular combination of indicator and substrate. To empirically determine the Ct value range for a Ct strip having a particular indicator impregnated onto a particular substrate having particular properties, the particular Ct strip is exposed to known concentrations of ozone over incremental periods of time. The resulting color of the substrate is recorded after given increments of time until the color is entirely bleached out or until a maximum desired exposure time has passed. The color of the Ct strip, after each time increment of immersion in a known concentration of ozone, is an accurate measure of the Ct value for an exposed surface. The resulting colors are recorded for comparison use, as on a color chart, for that particular combination of indicator and substrate. Strips of filter paper ½″×2″ were cut and immersed in a 1000 ppm solution of Solvent Green 3 (1,4-bis[(4-methylphenyl)amino]-9,10-anthracenedione) in acetone for 5 seconds at room temperature. When dyed in this manner, strips were initially an extremely dark green and dried to a medium green color. When submerged in a flowing bath of 3 ppm ozone dissolved in water, bleaching was observed. […] Strips of filter paper ½″×2″ were cut and immersed in a 1000 ppm solution of Solvent Red 23 in acetone for 5 seconds at room temperature. When submerged in a flowing bath of 5 ppm ozone dissolved in water, bleaching was observed. […] Strips of filter paper ½″×2″ were cut and immersed in a 1000 ppm solution of Solvent Violet 13 in acetone for 5 seconds at room temperature. When submerged in a flowing bath of 5 ppm ozone dissolved in water, bleaching was observed. […] Strips of filter paper ½″×2″ were cut and immersed in a 500 ppm solution of Solvent Yellow 33 in acetone for 5 seconds at room temperature. When submerged in a flowing bath of 6 ppm ozone dissolved in water, bleaching was observed.

Molecules are shown by their SMILES.

This is an account of results in patent US20040121021A1, “Determination of adequate ozone disinfection” (priority 2002, published 2004).

Take `Cc1ccc(Nc2ccc(Nc3ccc(C)cc3)c3c2C(=O)c2ccccc2C3=O)cc1` [Solvent Green 3, 1,4-bis[(4-methylphenyl)amino]-9,10-anthracenedione]: the color loss (filter paper strip dyed in 1000 ppm solution in acetone, flowing bath of 3 ppm ozone dissolved in water, after 90 minutes) is listed as roughly 40%.

In the case of `Cc1ccc(Nc2ccc(O)c3c2C(=O)c2ccccc2C3=O)cc1` [Solvent Violet 13], the color loss (filter paper strip dyed in 1000 ppm Solvent Red 23 solution in acetone, flowing bath of 5 ppm ozone dissolved in water, after 240 minutes) was roughly 75%.

Regarding `O=C1c2ccccc2C(=O)C1c1ccc2ccccc2n1` [Solvent Yellow 33], the color loss entry (filter paper strip dyed in 500 ppm solution in acetone, flowing bath of 6 ppm ozone dissolved in water, after 20 minutes) is reported as “complete color loss”.

As for `Oc1ccc2ccccc2c1N=Nc1ccc(N=Nc2ccccc2)cc1` [Solvent Red 23], the color loss (filter paper strip dyed in 1000 ppm Solvent Red 23 solution in acetone, flowing bath of 5 ppm ozone dissolved in water, after 90 minutes) is recorded as roughly 30%.
